For 21 compounds, IC50 results are on record in patent US20200101068A1, “Heteroaryl Derivatives as PARP Inhibitors” (Lupin Limited, priority 2015, published 2020).

The target of this experiment is T1, PARP1 (Homo sapiens, UniProt P09874).
T1 construct: purchased BPS Bioscience
T1 sequence (P09874 whole entry): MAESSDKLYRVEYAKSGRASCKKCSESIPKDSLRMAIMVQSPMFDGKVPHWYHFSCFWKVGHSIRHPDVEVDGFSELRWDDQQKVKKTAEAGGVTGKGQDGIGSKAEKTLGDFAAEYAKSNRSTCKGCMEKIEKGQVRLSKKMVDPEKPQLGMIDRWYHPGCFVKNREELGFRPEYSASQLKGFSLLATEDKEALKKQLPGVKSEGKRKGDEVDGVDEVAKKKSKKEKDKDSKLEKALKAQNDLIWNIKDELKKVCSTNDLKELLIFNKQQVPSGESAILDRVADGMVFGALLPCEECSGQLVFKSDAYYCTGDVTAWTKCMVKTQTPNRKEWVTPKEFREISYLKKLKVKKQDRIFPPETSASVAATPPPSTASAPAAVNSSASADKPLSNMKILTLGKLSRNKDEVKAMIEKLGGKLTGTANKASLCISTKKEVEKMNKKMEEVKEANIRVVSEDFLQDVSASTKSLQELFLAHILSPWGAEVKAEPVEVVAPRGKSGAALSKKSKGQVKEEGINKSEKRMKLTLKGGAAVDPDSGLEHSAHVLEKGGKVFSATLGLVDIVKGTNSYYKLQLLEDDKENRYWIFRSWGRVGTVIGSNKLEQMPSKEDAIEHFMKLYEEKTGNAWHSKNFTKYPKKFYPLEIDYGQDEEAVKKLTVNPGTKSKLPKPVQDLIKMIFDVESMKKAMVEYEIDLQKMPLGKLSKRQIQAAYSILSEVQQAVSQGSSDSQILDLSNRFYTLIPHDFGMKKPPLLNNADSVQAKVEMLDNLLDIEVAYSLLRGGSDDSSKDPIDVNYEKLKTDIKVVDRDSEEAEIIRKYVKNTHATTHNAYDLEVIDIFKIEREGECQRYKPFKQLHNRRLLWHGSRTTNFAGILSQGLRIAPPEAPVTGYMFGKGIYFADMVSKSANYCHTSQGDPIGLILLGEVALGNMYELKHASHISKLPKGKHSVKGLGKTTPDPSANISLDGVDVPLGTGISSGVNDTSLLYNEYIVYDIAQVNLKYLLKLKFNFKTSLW
Put plainly: PARP1 biochemical assay (BPS Bioscience kit, chemiluminescent). The note with it: histone-coated plate, biotinylated NAD+, 60 min at 25° C., luminescence; read-out: PARP 1 inhibition IC50. The procedure:
Example 16: PARP1 Biochemical Assay
The assay was performed using BPS Bioscience kit. The 96-well strip plate was coated with 50 μl of histone mixture and incubated at 4° C. overnight. The next day, the wells were blocked by adding 100 μl of blocking buffer. The plate was washed and 25 μl of appropriate concentration of PARP1 (25-75 ng/well) was added in all of the Test and Positive control wells. In the Negative control wells, the enzyme was replaced with 25 μl of water. 5 μl each of 10× PARP assay buffer and activated DNA was added in all the wells (Test, Positive and Negative control wells). 10× concentration of the test compounds were prepared and 5 μl test compounds were added to the respective wells. The reaction volume was made up to 45 μl by adding water to all of the wells. 5 μl of 10× PARP assay mixture containing biotinilated NAD^+ was added in each well and the plate was incubated at ambient temperature (25° C.) for 60 min. After washing the plate 50 μl of Streptavidin-HRP was added in each well, the plate was incubated at RT for 30 min. The plate was washed and the luminescence was read in PHERAStar plate reader after adding 100 μl of chemiluminescent substrate.
PARP inhibition was calculated using the following formula:
% PARP inhibition=100−[(RLU test compound treated sample−RLU negative control)/(RLU Positive control−RLU negative control)×100]
IC50 values were calculated by plotting % inhibition against the respective concentrations of test compounds using GraphPad Prism 5.
For orientation: IC50 means the concentration needed to halve the response being measured. As for `N#Cc1ccc(N2CCN([C@H]3C=C(c4cc5ncccc5c(=O)[nH]4)CC3)CC2)nc1` [Compound 34, (R)-6-(4-(3-(5-oxo-5,6-dihydro-1,6-naphthyridin-7-yl)cyclopent-2-en-1-yl)piperazin-1-yl)nicotinonitrile], the 50% inhibitory concentration (IC50) is 0.5 to 5 nM. In the case of `N#Cc1cnc(N2CCN([C@H]3C=C(c4cc5ncccc5c(=O)[nH]4)CC3)CC2)s1` [Compound 35, (R)-2-(4-(3-(5-oxo-5,6-dihydro-1,6-naphthyridin-7-yl)cyclopent-2-en-1-yl)piperazin-1-yl)thiazole-5-carbonitrile], the 50% inhibitory concentration (IC50) is 0.5 to 5 nM. For `N#Cc1ccc(N2CCN([C@H]3C=C(c4cc5cnccc5c(=O)[nH]4)CC3)CC2)cc1` [Compound 36, (R)-4-(4-(3-(1-oxo-1,2-dihydro-2,6-naphthyridin-3-yl)cyclopent-2-en-1-yl)piperazin-1-yl)benzonitrile] the value was 0.5 to 5 nM; for `N#Cc1ccc(N2CCN([C@H]3C=C(c4cc5cccnc5c(=O)[nH]4)CC3)CC2)cc1` [Compound 37, (R)-4-(4-(3-(8-oxo-7,8-dihydro-1,7-naphthyridin-6-yl)cyclopent-2-en-1-yl)piperazin-1-yl)benzonitrile], 0.5 to 5 nM.

With `N#Cc1ccc(N2CCN([C@H]3C=C(c4cc5ccncc5c(=O)[nH]4)CC3)CC2)cc1` [Compound 38, (R)-4-(4-(3-(1-oxo-1,2-dihydro-2,7-naphthyridin-3-yl)cyclopent-2-en-1-yl)piperazin-1-yl)benzonitrile], the half-inhibitory concentration (IC50) fell in the range of 0.5 to 5 nM. For the compound `O=c1[nH]c(C2=C[C@H](N3CCN(c4ccc(F)cc4F)CC3)CC2)cc2ncccc12` [Compound 39, (R)-7-(3-(4-(2,4-difluorophenyl)piperazin-1-yl)cyclopent-1-en-1-yl)-1,6-naphthyridin-5(6H)-one], the IC50 lay in the range of 0.5 to 5 nM. The result for `N#Cc1ccc(N2CCN([C@H]3C=C(c4cc5ncncc5c(=O)[nH]4)CC3)CC2)cc1` [Compound 40, (R)-4-(4-(3-(5-oxo-5,6-dihydropyrido[4,3-d]pyrimidin-7-yl)cyclopent-2-en-1-yl)piperazin-1-yl)benzonitrile] reads 0.5 to 5 nM; that for `N#Cc1ccc(N2CCN([C@H]3C=C(c4cc5nccnc5c(=O)[nH]4)CC3)CC2)cc1` [Compound 41, (R)-4-(4-(3-(5-oxo-5,6-dihydropyrido[3,4-b]pyrazin-7-yl)cyclopent-2-en-1-yl)piperazin-1-yl)benzonitrile], 5.1 to 50 nM; that for `N#Cc1ccc(N2CCN([C@H]3C=C(c4cc5sccc5c(=O)[nH]4)CC3)CC2)cc1` [Compound 42, (R)-4-(4-(3-(4-oxo-4,5-dihydrothieno[3,2-c]pyridin-6-yl)cyclopent-2-en-1-yl)piperazin-1-yl)benzonitrile], 0.5 to 5 nM. On to `N#Cc1ccc(N2CCN([C@H]3C=C(c4cc5ncsc5c(=O)[nH]4)CC3)CC2)cc1` [Compound 43, (R)-4-(4-(3-(4-oxo-4,5-dihydrothiazolo[5,4-c]pyridin-6-yl)cyclopent-2-en-1-yl)piperazin-1-yl)benzonitrile], for which the IC50 fell in the range of 0.5 to 5 nM.

Turning to `N#Cc1ccc(N2CCN([C@H]3C=C(c4cc5scnc5c(=O)[nH]4)CC3)CC2)cc1` [Compound 44, (R)-4-(4-(3-(4-oxo-4,5-dihydrothiazolo[4,5-c]pyridin-6-yl)cyclopent-2-en-1-yl)piperazin-1-yl)benzonitrile], the concentration for half-maximal inhibition (IC50) was 0.5 to 5 nM. `N#Cc1ccc(N2CCN([C@@H]3C=C(c4cc5sccc5c(=O)[nH]4)CC3)CC2)cc1` [Compound 45, (S)-4-(4-(3-(4-oxo-4,5-dihydrothieno[3,2-c]pyridin-6-yl)cyclopent-2-en-1-yl)piperazin-1-yl)benzonitrile]: the 50% inhibitory concentration (IC50) lay within 5.1 to 50 nM. For `O=c1[nH]c(C2=C[C@H](N3CCN(c4ccc(F)cc4)CC3)CC2)cc2sccc12` [Compound 47, (R)-6-(3-(4-(4-fluorophenyl)piperazin-1-yl)cyclopent-1-en-1-yl)thieno[3,2-c]pyridin-4(5H)-one] the value was 0.5 to 5 nM; for `O=c1[nH]c(C2=C[C@H](N3CCN(c4ccccc4)CC3)CC2)cc2sccc12` [Compound 48, (R)-6-(3-(4-phenylpiperazin-1-yl)cyclopent-1-en-1-yl)thieno[3,2-c]pyridin-4(5H)-one], 0.5 to 5 nM. For `CNC(=O)c1ccc(N2CCN([C@H]3C=C(c4cc5sccc5c(=O)[nH]4)CC3)CC2)cc1` [Compound 49, (R)—N-methyl-4-(4-(3-(4-oxo-4,5-dihydrothieno[3,2-c]pyridin-6-yl)cyclopent-2-en-1-yl)piperazin-1-yl)benzamide] the value was 0.5 to 5 nM; for `N#Cc1ccc(N2CCN([C@H]3C=C(c4cc5sccc5c(=O)[nH]4)CC3)CC2)nc1` [Compound 50, (R)-6-(4-(3-(4-oxo-4,5-dihydrothieno[3,2-c]pyridin-6-yl)cyclopent-2-en-1-yl)piperazin-1-yl)nicotinonitrile], 0.5 to 5 nM. The result for `O=c1[nH]c(C2=C[C@H](N3CCN(c4nccs4)CC3)CC2)cc2sccc12` [Compound 51, (R)-6-(3-(4-(thiazol-2-yl)piperazin-1-yl)cyclopent-1-en-1-yl)thieno[3,2-c]pyridin-4(5H)-one] reads 5.1 to 50 nM; that for `N#Cc1ccc(N2CCN([C@H]3C=C(c4cc5ncsc5c(=O)[nH]4)CC3)CC2)c(F)c1` [Compound 52, (R)-3-fluoro-4-(4-(3-(4-oxo-4,5-dihydrothiazolo[5,4-c]pyridin-6-yl)cyclopent-2-en-1-yl)piperazin-1-yl)benzonitrile], 0.5 to 5 nM. Turning to `N#Cc1ccc(N2CCN([C@H]3C=C(c4cc5cccn5c(=O)[nH]4)CC3)CC2)cc1` [Compound 54, (R)-4-(4-(3-(1-oxo-1,2-dihydropyrrolo[1,2-c]pyrimidin-3-yl)cyclopent-2-en-1-yl)piperazin-1-yl)benzonitrile], the IC50 is 0.5 to 5 nM. As to `O=c1[nH]c(C2=C[C@H](N3CCN(c4ccc(F)cc4)CC3)CC2)cc2cccn12` [Compound 55, (R)-3-(3-(4-(4-fluorophenyl)piperazin-1-yl)cyclopent-1-en-1-yl)pyrrolo [1,2-c]pyrimidin-1(2H)-one], the half-inhibitory concentration (IC50) lay in the range of 0.5 to 5 nM.

As to `N#Cc1ccc(N2CCN([C@H]3C=C(c4cn5cccc5c(=O)[nH]4)CC3)CC2)cc1` [Compound 56, (R)-4-(4-(3-(1-oxo-1,2-dihydropyrrolo[1,2-a]pyrazin-3-yl)cyclopent-2-en-1-yl)piperazin-1-yl)benzonitrile], the IC50 fell in the range of 0.5 to 5 nM.
